Like-named read-outs stand apart in the source and are kept apart here.
Assays:
EGFR L858R/C797S = EGFR L858R/C797S (Homo sapiens, UniProt P00533, C797S/L858R); test: Biochemical EGFR kinase assay (Lance Ultra TR-FRET), double mutant L858R/C797S
Description: (§1) Biochemical EGFR kinase assays were conducted using Lance Ultra time-resolved fluorescence resonance energy transfer (TR-FRET) technology from Perkin-Elmer. Compounds of the invention were initially diluted to 20 mM in 100% DMSO for storage and made into kinase buffer solution to create a compound concentration ranging from 0.003 μM and 10 μM.
(§2) Each kinase reactions were incubated at room temperature for 1 hour and then stopped by the addition of 4 μL of stop solution (10 mM EDTA). The specific Europium-labeled-anti-phosphopeptide antibody (PerkinElmer, AD0069) diluted in LANCE detection buffer was then added to a final concentration of 2 nM. After 60 minutes incubation at room temperature the LANCE signal was measured on an EnVision Multilabel Reader (Perkin-Elmer). Excitation wavelength was set at 320 nm and emission monitored at 615 nm (donor) and 665 nm (acceptor). The IC50 values were determined using GraphPad prism software (GraphPad Software, Inc., San Diego, CA, USA).

EGFR del19/T790M/C797S = EGFR del19/T790M/C797S (Homo sapiens, UniProt P00533, C797S/DEL746-750/T790M); test: Biochemical EGFR kinase assay (Lance Ultra TR-FRET), triple mutant del19/T790M/C797S
Description: as §1, §2

EGFR wildtype = EGFR wildtype (Homo sapiens, UniProt P00533); test: Biochemical EGFR kinase assay (Lance Ultra TR-FRET), wildtype
Description: as §1, §2

EGFR L858R/T790M/C797S = EGFR L858R/T790M/C797S (Homo sapiens, UniProt P00533, C797S/L858R/T790M); test: Biochemical EGFR kinase assay (Lance Ultra TR-FRET), triple mutant L858R/T790M/C797S
Description: as §1, §2

EGFR del19/C797S = EGFR del19/C797S (Homo sapiens, UniProt P00533, C797S/DEL746-750); test: Biochemical EGFR kinase assay (Lance Ultra TR-FRET), double mutant del19/C797S
Description: as §1, §2

[1] = IC50 L858R/C797S (nM) 100 μM ATP, 100 μM ATP
[2] = Km ATP, read-out: IC50 L858R/C797S (nM) Km ATP
[3] = IC50 del19/T790M/C797S (nM) 100 μM ATP, 100 μM ATP
[4] = Km ATP, read-out: IC50 del19/T790M/C797S (nM) Km ATP
[5] = IC50 WT (nM) 100 μM ATP, 100 μM ATP
[6] = Km ATP, read-out: IC50 WT (nM) Km ATP
[7] = IC50 L858R/T790M/C797S (nM) 100 μM ATP, 100 μM ATP
[8] = Km ATP, read-out: IC50 L858R/T790M/C797S (nM) Km ATP
[9] = IC50 del19/C797S (nM) 100 μM ATP, 100 μM ATP
[10] = Km ATP, read-out: IC50 del19/C797S (nM) Km ATP

Sequence of EGFR wildtype (P00533 25-1210): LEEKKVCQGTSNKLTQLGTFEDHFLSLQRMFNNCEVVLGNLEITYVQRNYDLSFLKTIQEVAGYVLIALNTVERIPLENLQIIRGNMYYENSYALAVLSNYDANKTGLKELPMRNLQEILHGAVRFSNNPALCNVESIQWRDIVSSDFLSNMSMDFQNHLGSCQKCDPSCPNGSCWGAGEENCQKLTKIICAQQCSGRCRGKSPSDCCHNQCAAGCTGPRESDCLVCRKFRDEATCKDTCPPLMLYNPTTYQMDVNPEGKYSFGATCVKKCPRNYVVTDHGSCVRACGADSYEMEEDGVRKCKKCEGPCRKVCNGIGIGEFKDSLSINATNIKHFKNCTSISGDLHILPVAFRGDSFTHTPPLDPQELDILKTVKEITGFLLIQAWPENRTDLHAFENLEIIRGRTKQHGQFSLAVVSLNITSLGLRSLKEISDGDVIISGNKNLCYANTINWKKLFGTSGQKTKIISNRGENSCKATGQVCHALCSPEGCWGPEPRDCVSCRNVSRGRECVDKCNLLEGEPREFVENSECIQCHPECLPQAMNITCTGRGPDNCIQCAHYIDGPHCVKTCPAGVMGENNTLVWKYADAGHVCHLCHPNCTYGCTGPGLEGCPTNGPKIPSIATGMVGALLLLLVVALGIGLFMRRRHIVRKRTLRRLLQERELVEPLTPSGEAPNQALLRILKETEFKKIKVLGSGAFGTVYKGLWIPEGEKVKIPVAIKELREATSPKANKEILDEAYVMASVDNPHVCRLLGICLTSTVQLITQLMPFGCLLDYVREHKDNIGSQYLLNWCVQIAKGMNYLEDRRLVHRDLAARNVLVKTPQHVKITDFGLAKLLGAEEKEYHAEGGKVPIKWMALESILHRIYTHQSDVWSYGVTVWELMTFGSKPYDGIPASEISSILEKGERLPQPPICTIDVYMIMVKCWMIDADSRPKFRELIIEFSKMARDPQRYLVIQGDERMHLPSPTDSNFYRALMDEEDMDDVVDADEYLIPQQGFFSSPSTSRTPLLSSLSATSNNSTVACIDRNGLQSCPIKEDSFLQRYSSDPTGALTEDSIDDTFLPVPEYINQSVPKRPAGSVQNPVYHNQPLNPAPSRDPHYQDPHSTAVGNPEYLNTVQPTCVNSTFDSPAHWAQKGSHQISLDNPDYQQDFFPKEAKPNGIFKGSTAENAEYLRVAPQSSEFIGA
Sequence of EGFR L858R/T790M/C797S (P00533 25-1210 T790M/C797S/L858R): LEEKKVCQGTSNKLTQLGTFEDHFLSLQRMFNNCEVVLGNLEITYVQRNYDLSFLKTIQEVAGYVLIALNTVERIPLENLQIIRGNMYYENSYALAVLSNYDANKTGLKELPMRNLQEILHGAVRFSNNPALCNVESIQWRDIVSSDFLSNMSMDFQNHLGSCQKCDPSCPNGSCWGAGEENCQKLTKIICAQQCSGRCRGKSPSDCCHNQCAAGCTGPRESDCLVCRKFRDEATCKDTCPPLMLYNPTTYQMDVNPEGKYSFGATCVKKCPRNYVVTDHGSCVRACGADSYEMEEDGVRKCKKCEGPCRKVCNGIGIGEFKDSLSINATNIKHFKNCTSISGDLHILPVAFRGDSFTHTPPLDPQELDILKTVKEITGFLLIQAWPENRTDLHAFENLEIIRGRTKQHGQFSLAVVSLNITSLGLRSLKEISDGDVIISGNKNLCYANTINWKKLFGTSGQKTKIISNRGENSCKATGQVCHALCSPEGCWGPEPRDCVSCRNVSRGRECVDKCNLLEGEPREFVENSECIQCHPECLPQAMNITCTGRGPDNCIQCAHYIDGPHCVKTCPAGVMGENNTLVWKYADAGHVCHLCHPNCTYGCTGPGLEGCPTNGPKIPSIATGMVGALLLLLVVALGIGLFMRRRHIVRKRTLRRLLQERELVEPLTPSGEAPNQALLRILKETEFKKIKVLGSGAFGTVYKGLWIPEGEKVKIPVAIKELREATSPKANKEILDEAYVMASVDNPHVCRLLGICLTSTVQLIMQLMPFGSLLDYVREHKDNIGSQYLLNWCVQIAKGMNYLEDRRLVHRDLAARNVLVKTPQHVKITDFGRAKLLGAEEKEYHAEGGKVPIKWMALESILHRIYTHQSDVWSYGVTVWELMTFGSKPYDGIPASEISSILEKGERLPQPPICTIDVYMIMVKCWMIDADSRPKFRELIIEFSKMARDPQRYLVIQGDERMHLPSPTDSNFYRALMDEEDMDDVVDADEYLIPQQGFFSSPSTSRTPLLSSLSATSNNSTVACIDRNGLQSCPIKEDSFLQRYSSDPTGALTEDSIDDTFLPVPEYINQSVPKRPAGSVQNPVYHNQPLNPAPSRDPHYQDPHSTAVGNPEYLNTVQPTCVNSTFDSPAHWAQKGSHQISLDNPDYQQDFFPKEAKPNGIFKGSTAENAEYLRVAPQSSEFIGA
Sequence of EGFR del19/T790M/C797S (P00533 with tags, fused parts or gaps DEL746-750/T790M/C797S): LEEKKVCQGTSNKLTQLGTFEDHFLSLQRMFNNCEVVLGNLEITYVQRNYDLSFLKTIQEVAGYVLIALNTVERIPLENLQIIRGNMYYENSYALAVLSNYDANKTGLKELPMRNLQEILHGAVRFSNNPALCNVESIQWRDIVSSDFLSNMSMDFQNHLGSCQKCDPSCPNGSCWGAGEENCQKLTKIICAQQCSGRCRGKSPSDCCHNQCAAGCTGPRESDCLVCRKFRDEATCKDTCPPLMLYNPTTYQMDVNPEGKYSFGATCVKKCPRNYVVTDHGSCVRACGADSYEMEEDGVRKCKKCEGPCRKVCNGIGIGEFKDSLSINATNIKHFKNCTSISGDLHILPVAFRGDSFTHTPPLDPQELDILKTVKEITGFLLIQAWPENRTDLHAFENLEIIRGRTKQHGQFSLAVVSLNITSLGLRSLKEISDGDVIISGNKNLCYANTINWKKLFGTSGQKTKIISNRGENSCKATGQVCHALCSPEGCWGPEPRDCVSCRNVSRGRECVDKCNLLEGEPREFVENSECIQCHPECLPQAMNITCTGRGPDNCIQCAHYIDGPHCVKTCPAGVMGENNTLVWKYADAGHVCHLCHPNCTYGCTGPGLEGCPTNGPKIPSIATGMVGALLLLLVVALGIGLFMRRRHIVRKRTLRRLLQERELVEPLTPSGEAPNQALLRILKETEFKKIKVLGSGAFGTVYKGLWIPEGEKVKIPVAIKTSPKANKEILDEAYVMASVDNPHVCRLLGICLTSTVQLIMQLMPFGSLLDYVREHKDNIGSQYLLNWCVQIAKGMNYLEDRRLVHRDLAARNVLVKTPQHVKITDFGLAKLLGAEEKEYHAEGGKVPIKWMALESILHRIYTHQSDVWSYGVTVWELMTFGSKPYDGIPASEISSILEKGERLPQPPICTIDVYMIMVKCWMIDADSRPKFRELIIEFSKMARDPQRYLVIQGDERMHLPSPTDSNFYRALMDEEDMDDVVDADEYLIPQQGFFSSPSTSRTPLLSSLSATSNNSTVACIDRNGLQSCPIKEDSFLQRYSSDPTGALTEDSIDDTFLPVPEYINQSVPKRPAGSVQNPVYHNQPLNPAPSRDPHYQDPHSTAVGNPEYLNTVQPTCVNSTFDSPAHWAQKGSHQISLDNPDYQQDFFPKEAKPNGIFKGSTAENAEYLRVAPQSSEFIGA
Sequence of EGFR del19/C797S (P00533 with tags, fused parts or gaps DEL746-750/C797S): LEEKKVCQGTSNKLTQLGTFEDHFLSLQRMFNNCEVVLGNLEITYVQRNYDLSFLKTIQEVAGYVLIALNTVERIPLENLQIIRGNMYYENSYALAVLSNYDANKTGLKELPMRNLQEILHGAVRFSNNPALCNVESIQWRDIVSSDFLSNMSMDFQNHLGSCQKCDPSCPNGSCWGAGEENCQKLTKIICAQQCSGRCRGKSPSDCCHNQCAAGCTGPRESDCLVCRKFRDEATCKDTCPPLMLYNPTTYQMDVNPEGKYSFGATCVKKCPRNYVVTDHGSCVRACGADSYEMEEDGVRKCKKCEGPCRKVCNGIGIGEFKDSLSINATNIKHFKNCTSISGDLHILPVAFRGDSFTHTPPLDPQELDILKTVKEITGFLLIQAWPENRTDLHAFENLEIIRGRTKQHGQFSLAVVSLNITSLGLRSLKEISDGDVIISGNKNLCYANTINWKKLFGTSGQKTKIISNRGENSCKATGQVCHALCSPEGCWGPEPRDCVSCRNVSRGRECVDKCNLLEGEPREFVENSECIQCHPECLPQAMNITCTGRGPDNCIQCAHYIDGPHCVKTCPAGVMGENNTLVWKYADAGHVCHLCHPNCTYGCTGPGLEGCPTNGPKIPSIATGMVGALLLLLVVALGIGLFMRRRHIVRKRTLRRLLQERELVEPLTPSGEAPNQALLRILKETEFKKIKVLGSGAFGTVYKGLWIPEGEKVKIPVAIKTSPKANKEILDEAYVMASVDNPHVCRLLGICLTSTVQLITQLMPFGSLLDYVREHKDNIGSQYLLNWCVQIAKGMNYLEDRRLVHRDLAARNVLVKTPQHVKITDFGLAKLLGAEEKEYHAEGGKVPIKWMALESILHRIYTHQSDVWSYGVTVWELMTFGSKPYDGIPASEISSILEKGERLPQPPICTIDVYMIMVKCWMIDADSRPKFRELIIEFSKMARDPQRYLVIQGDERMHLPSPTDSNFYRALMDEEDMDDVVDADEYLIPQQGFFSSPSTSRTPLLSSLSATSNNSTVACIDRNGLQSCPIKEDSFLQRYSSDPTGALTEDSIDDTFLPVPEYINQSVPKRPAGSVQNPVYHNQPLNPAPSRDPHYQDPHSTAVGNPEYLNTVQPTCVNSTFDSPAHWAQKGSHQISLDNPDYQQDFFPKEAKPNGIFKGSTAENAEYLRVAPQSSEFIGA

| IC50 (EGFR L858R/C797S; [1]) | IC50 (EGFR L858R/C797S; [2]) | IC50 (EGFR del19/T790M/C797S; [3]) | IC50 (EGFR del19/T790M/C797S; [4]) | IC50 (EGFR wildtype; [5]) | IC50 (EGFR wildtype; [6]) | IC50 (EGFR L858R/T790M/C797S; [7]) | IC50 (EGFR L858R/T790M/C797S; [8]) | IC50 (EGFR del19/C797S; [9]) | IC50 (EGFR del19/C797S; [10]) | Structure (SMILES) |
| --- | --- | --- | --- | --- | --- | --- | --- | --- | --- | --- |
| 29.3 nM | 1.7 nM | 3.9 nM | 2.6 nM | 813 nM | 7.9 nM | 3.1 nM | 1.7 nM | 1.3 nM | 2.1 nM | C[C@]1(O)CC[C@@H](Nc2cc(Nc3ccnc(-c4cnn(S(=O)(=O)C5CC5)c4)n3)ncc2-c2ccc(CN3CCC(F)(F)CC3)cn2)CC1 [Example 33, (1s,4s)-4-((6′-((2-(1-(Cyclopropylsulfonyl)-1H-pyrazol-4-yl)pyrimidin-4-yl)amino)-5-((4,4-difluoropiperidin-1-yl)methyl)-[2,3′-bipyridin]-4′-yl)amino)-1-methylcyclohexan-1-ol] |
| 0.2 nM | 0.1 nM | 0.6 nM | 0.6 nM | 61.1 nM | 0.5 nM | 0.3 nM | 0.1 nM | 0.4 nM | 0.2 nM | CC(C)N1CCN(Cc2ccc(-c3cnc(Nc4ccnc(-c5cnn(S(=O)(=O)C6CC6)c5)n4)cc3N[C@H]3CC[C@@](C)(O)CC3)nc2)CC1 [Example 34, (1s,4s)-4-((6′-((2-(1-(Cyclopropylsulfonyl)-1H-pyrazol-4-yl)pyrimidin-4-yl)amino)-5-((4-isopropylpiperazin-1-yl)methyl)-[2,3′-bipyridin]-4′-yl)amino)-1-methylcyclohexan-1-ol] |
| – | 0.3 nM | 0.3 nM | 0.6 nM | 811 nM | – | 0.3 nM | 0.2 nM | 0.2 nM | 0.3 nM | C[C@]1(O)CC[C@@H](Nc2cc(Nc3ccnc(-c4cnn(S(=O)(=O)C5CC5)c4)n3)ncc2-c2ccccn2)CC1 [Example 35, (1s,4s)-4-((6′-((2-(1-(Cyclopropylsulfonyl)-1H-pyrazol-4-yl)pyrimidin-4-yl)amino)-[2,3′-bipyridin]-4′-yl)amino)-1-methylcyclohexan-1-ol] |
| 15.7 nM | 1 nM | 0.2 nM | 0.1 nM | 3080 nM | 5.8 nM | 0.1 nM | 0.1 nM | 0.9 nM | 0.5 nM | O=S(=O)(C1CC1)n1cc(-c2nccc(Nc3cc(N[C@H]4CC[C@@H](NCCF)CC4)c(-c4ccccn4)cn3)n2)cn1 [Example 36, N^6′-(2-(1-(Cyclopropylsulfonyl)-1H-pyrazol-4-yl)pyrimidin-4-yl)-N^4′-((1s,4s)-4-((2-fluoroethyl)amino)cyclohexyl)-[2,3′-bipyridine]-4′,6′-diamine] |
| 21.3 nM | 0.7 nM | 0.2 nM | 0.2 nM | > 10000 nM | 6.6 nM | 0.3 nM | 0.1 nM | 1.1 nM | 0.7 nM | O=S(=O)(C1CC1)n1cc(-c2nccc(Nc3cc(N[C@H]4CC[C@](O)(CO)CC4)c(-c4ccccn4)cn3)n2)cn1 [Example 37, (1s,4s)-4-((6′-((2-(1-(Cyclopropylsulfonyl)-1H-pyrazol-4-yl)pyrimidin-4-yl)amino)-[2,3′-bipyridin]-4′-yl)amino)-1-(hydroxymethyl)cyclohexan-1-ol] |
| 4.3 nM | 0.9 nM | 0.4 nM | – | 1430 nM | – | 0.7 nM | 0.2 nM | 0.6 nM | 0.3 nM | C[C@]1(O)CC[C@@H](Nc2cc(Nc3ccnc(-c4cnn(S(=O)(=O)C5CC5)c4)n3)ncc2-c2ccc(N3CCOCC3)cn2)CC1 [Example 38, (1s,4s)-4-((6′-((2-(1-(Cyclopropylsulfonyl)-1H-pyrazol-4-yl)pyrimidin-4-yl)amino)-5-morpholino-[2,3′-bipyridin]-4′-yl)amino)-1-methylcyclohexan-1-ol] |
| 74.8 nM | 8.7 nM | 2.1 nM | 1 nM | > 10000 nM | 26 nM | 0.7 nM | 0.4 nM | – | 2.5 nM | CN(C)c1cnc(-c2cnc(Nc3ccnc(-c4cnn(S(=O)(=O)C5CC5)c4)n3)cc2N[C@H]2CC[C@@](C)(O)CC2)nc1 [Example 39, (1s,4s)-4-((2-((2-(1-(Cyclopropylsulfonyl)-1H-pyrazol-4-yl)pyrimidin-4-yl)amino)-5-(5-(dimethylamino)pyrimidin-2-yl)pyridin-4-yl)amino)-1-methylcyclohexan-1-ol] |
| 7.7 nM | 1.7 nM | 2.1 nM | 0.7 nM | 1440 nM | 5 nM | 1.7 nM | 0.5 nM | 3.2 nM | 2.3 nM | CN(C)c1ccc(-c2cnc(Nc3ccnc(-c4cnn(S(=O)(=O)C5CC5)c4)n3)cc2N[C@H]2CC[C@@](C)(O)CC2)nc1 [Example 40, (1s,4s)-4-((6′-((2-(1-(Cyclopropylsulfonyl)-1H-pyrazol-4-yl)pyrimidin-4-yl)amino)-5-(dimethylamino)-[2,3′-bipyridin]-4′-yl)amino)-1-methylcyclohexan-1-ol] |
| 523 nM | 4 nM | 0.8 nM | 0.3 nM | > 10000 nM | 43.6 nM | 0.9 nM | 0.2 nM | 5.1 nM | 4.5 nM | CN(C)c1ccnc(-c2cnc(Nc3ccnc(-c4cnn(S(=O)(=O)C5CC5)c4)n3)cc2N[C@H]2CC[C@@](C)(O)CC2)n1 [Example 41, (1s,4s)-4-((2-((2-(1-(Cyclopropylsulfonyl)-1H-pyrazol-4-yl)pyrimidin-4-yl)amino)-5-(4-(dimethylamino)pyrimidin-2-yl)pyridin-4-yl)amino)-1-methylcyclohexan-1-ol] |
| 2.3 nM | 0.4 nM | 0.1 nM | 0.1 nM | 1360 nM | – | 0.1 nM | 0.03 nM | 0.2 nM | 0.3 nM | C[C@]1(O)CC[C@@H](Nc2cc(Nc3ccnc(-c4cnn(S(=O)(=O)C5CC5)c4)n3)ncc2-c2cccnn2)CC1 [Example 42, (1s,4s)-4-((2-((2-(1-(Cyclopropylsulfonyl)-1H-pyrazol-4-yl)pyrimidin-4-yl)amino)-5-(pyridazin-3-yl)pyridin-4-yl)amino)-1-methylcyclohexan-1-ol] |
| 1.6 nM | 0.6 nM | 2.5 nM | 0.1 nM | 1560 nM | 2 nM | 2.7 nM | 0.1 nM | 0.5 nM | 0.4 nM | C[C@]1(O)CC[C@@H](Nc2cc(Nc3ccnc(-c4cnn(S(=O)(=O)C5CC5)c4)n3)ncc2-c2ccc(N3CCOCC3)nn2)CC1 [Example 43, (1s,4s)-4-((2-((2-(1-(Cyclopropylsulfonyl)-1H-pyrazol-4-yl)pyrimidin-4-yl)amino)-5-(6-morpholinopyridazin-3-yl)pyridin-4-yl)amino)-1-methylcyclohexan-1-ol] |
| 7.1 nM | – | 0.6 nM | – | > 10000 nM | – | 0.6 nM | – | 0.8 nM | – | C[C@]1(O)CC[C@@H](Nc2cc(Nc3ccnc(-c4cnn(S(=O)(=O)C5CC5)c4)n3)ncc2-c2cnc(N3CCOCC3)cn2)CC1 [Example 44, (1s,4s)-4-((2-((2-(1-(Cyclopropylsulfonyl)-1H-pyrazol-4-yl)pyrimidin-4-yl)amino)-5-(5-morpholinopyrazin-2-yl)pyridin-4-yl)amino)-1-methylcyclohexan-1-ol] |
| 4.2 nM | – | 1.7 nM | – | 602 nM | – | 2.6 nM | – | 1.7 nM | – | CC(C)(O)[C@H]1CC[C@@H](Nc2cc(Nc3ccnc(-c4cnn(S(=O)(=O)C5CC5)c4)n3)ncc2-c2ccc(N3CCOCC3)cn2)CC1 [Example 45, 2-((1s,4s)-4-((6′-((2-(1-(Cyclopropylsulfonyl)-1H-pyrazol-4-yl)pyrimidin-4-yl)amino)-5-morpholino-[2,3′-bipyridin]-4′-yl)amino)cyclohexyl)propan-2-ol] |
| 0.9 nM | 0.2 nM | 0.3 nM | 0.2 nM | > 10000 nM | 0.9 nM | 0.2 nM | 0.1 nM | 0.4 nM | 0.2 nM | CN1CCN(c2ccc(-c3cnc(Nc4ccnc(-c5cnn(S(=O)(=O)C6CC6)c5)n4)cc3N[C@H]3CC[C@@](C)(O)CC3)nn2)CC1 [Example 46, (1s,4s)-4-((2-((2-(1-(Cyclopropylsulfonyl)-1H-pyrazol-4-yl)pyrimidin-4-yl)amino)-5-(6-(4-methylpiperazin-1-yl)pyridazin-3-yl)pyridin-4-yl)amino)-1-methylcyclohexan-1-ol] |
